We go through eight compounds from patent US9670213B2, “Pteridine ketone derivative and applications thereof as EGFR, BLK, and FLT3 inhibitor” (EAST CHINA UNIVERSITY OF SCIENCE AND TECHNOLOGY, priority 2012, dated 2017).

For test [1], the system named is BT474 (breast cancer cells, Her2 overexpression). Description: Cell proliferation and growth inhibition analysis. It is filed as cell-based. The settings on record: Homo sapiens, BT-474, 72 hours, read-out: Inhibitory activity on cell proliferation (IC50, μM) BT474. As to the method: (§1) Cell proliferation and growth inhibition analysis: H1975 (non-small cell lung cancer cells, EGFR^L858/T790M), HCC827 (non-small cell lung cancer cells, EGFR^del E746-A750), A549 (non-small cell lung cancer cells, EGFR wild-type), BT474 (breast cancer cells, Her2 overexpression), SK-BR-3 (breast cancer cells, Her2 overexpression), MCF-7 (breast cancer cells, […]) cells were obtained from ATCC. Cell proliferation was evaluated by MTS assay. Cells were exposed to the process conditions for 72 hours, and the number of cells for each cell line used in the experiment was adjusted according to the absorbance value (absorbance value at 490 nm was 1.3-2.2). 6 concentration gradients (0.1 nM-10 μM) were set for the compounds to be tested, with six parallel controls for each concentration.

Test [2] deals with SK-BR-3 (breast cancer cells, Her2 overexpression). The test is described as follows: Cell proliferation and growth inhibition analysis. The following applies: Homo sapiens; SK-BR-3 cells, 72 hours; read-out: Inhibitory activity on cell proliferation (IC50, μM) SK-BR-3. The class given is cell-based. The protocol: as §1
In the next test the test system is MCF-7. The test is described as follows: Cell proliferation and growth inhibition analysis. The settings on record: Homo sapiens, MCF7; MCF-7 cells, 72 hours; read-out: Inhibitory activity on cell proliferation (IC50, μM) MCF-7. It is filed as cell-based. As to the method:
as §1

The subject of test [3] is A549 (non-small cell lung cancer cells, EGFR wild-type). The test is described as follows: Cell proliferation and growth inhibition analysis. The class given is cell-based. The following applies: Homo sapiens, 72 hours, read-out: Inhibitory activity on cell proliferation (IC50, μM) A549. As to the method: as §1
In the next test the target is FLT3 (Homo sapiens (Human), UniProt P36888). Description: FLT3 kinase activity assay (Caliper). The class given is biochemical. The following applies: read-out: Inhibitory activity on kinase (IC50, nM) FLT3. As to the method:
(§2) Preparation of 1× kinase matrix buffer and stop buffer.
(§3) Preparation of compound solution. The compound was dissolved in 100% DMSO to a concentration, which was 50 times of the final highest inhibiting-concentration. 100 μL of the compound solution as said above was transferred into wells of 96-well plate. The above compound solution was sequentially diluted to the final desired concentration. In two blank wells of same 96-well plate, 100 μL of 100% DMSO was added as no-compound and no-kinase control, and this plate was used as the original plate.
(§4) Preparation of intermediate plate. 10 μL of compound solution was transferred from the original plate to another 96-well plate as the intermediate plate; 90 μL of 1× kinase buffer was added into each well of the intermediate plate, and the intermediate plate was shaken for 10 min.
(§5) Preparation of assay plate. 5 μL of solution from each well of intermediate plate was added into a 384-well plate, and repeated controls were set.
(§6) Kinase reaction. 2.5× kinase solution and 2.5× peptide solution were prepared. 2.5× kinase solution was transferred into assay plate. Assay plate comprised 5 μL of the compound solution in 10% DMSO. 10 μL of 2.5× kinase solution was added in each well of 384-well assay plate. […] 2.5× peptide solution was added into each well. After incubated at 28° C. for an appropriate time, 25 μL of stop buffer was added to quench the reaction. Experimental data were collected in Caliper. Curve was fitted.

For another test, the target named is EGFR-T790M (Homo sapiens (Human), UniProt P00533, T790M). The test is described as follows: In vitro EGFR kinase activity assay (Z'-Lyte). The settings on record: read-out: Inhibitory activity on EGFR kinase (IC50, nM) T790M.
The subject of test [4] is HCC827 (non-small cell lung cancer cells, EGFR del E746-A750). The test is described as follows: Cell proliferation and growth inhibition analysis. The class given is cell-based. The following applies: Homo sapiens, 72 hours, read-out: Inhibitory activity on cell proliferation (IC50, μM) HCC827. The protocol: (§7) Cell proliferation was evaluated by MTS assay. Cells were exposed to the process conditions for 72 hours, and the number of cells for each cell line used in the experiment was adjusted according to the absorbance value (absorbance value at 490 nm was 1.3-2.2). 6 concentration gradients (0.1 nM-10 μM) were set for the compounds to be tested, with six parallel controls for each concentration.
(§8) H1975, HCC827, A549, BT474, MCF-7, SK-BR-3 cells were cultured in the corresponding medium. Upon recovery, the cells were passaged at least two times and then used in experiments. Cells in Log phase were trypsinized and resuspended in the medium. H1975 (1000 cells per well), BT474 (1500 cells per well), MCF-7 (1500 cells per well), HCC827 (2000 cells per well), SK-BR-3 (2000 cells per well), A549 (2000 cells per well) were seeded into 96-well plates, the volume was 100 μL, and 6 rows and 7 columns were set. The plate was placed in an incubator at 37° C. of 5% carbon dioxide overnight. Compounds were dissolved in DMSO to obtain the concentration of […], and then gradually diluted to obtain the concentration of compound as […], 0.1 μM, 0.01 μM, 0.001 μM, 0.0001 μM. 2 μL of compound solution was added into 998 μL of medium, and the resulting mixture was thoroughly mixed. 100 μL of mixture was added into 96-well plate. […] After the cells were cultured for 68 hours, 20 μL of MTT (5 mg/mL) was added. After 4 hours, the supernatant was discarded and 150 μL of DMSO was added. The resulting system was shaken for 10 minutes, and the plate was read with Synergy HT (Bio TeK) (OD490). The data was calculated by GraphPad Prism version 4.0, and IC50 was obtained by non-linear regression model using dose-response curve.

Test [5] relates to H1975 (non-small cell lung cancer cells, EGFR L858R/T790M). The test is described as follows: Cell proliferation and growth inhibition analysis. The class given is cell-based. The settings on record: Homo sapiens, NCI-H1975, 72 hours, read-out: Inhibitory activity on cell proliferation (IC50, μM) H1975. The protocol: as §7, §8
Another test addresses BLK (Homo sapiens (Human), UniProt P51451). The test is described as follows: BLK kinase activity assay (Caliper). It is filed as biochemical. The following applies: read-out: Inhibitory activity on kinase (IC50, nM) BLK. The protocol: as §2, §3, §4, §5, §6
A further test has as its target wild-type EGFR (Homo sapiens (Human), UniProt P00533). Description: In vitro EGFR kinase activity assay (Z'-Lyte). It is filed as biochemical. The settings on record: EGFR WT; read-out: Inhibitory activity on EGFR kinase (IC50, nM) WT.
In the next test the target is EGFR-L858R/T790M (Homo sapiens (Human), UniProt P00533, L858R/T790M). Description: In vitro EGFR kinase activity assay (Z'-Lyte). It is filed as biochemical. The settings on record: read-out: Inhibitory activity on EGFR kinase (IC50, nM) T790M/L858R.
The next test deals with EGFR-L858R (Homo sapiens (Human), UniProt P00533, L858R). Description: In vitro EGFR kinase activity assay (Z'-Lyte). The following applies: read-out: Inhibitory activity on EGFR kinase (IC50, nM) L858R. It is filed as biochemical.
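For Inhibitory activity on EGFR kinase (IC50, nM) L858R in this document: Cell-free kinase reaction with peptide substrate and ATP, 1.5 h at room temperature, then development step cleaving non-phosphorylated peptide, 10-point dilution series 0.051–1000 nM, phosphopeptide as 100% phosphorylation control.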
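For Inhibitory activity on EGFR kinase (IC50, nM) T790M/L858R in this document: Cell-free kinase reaction with peptide substrate and ATP, 1.5 h at room temperature, development cleaving unphosphorylated peptide, 10-point dilution 0.051–1000 nM, phosphopeptide as 100% phosphorylation control.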
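For Inhibitory activity on EGFR kinase (IC50, nM) WT in this document: Ten-point dose series from 5.1×10^−11 to 1.0×10^−6 mol/L, kinase reaction 1.5 h at room temperature, then 1 h development cleaving unphosphorylated peptide, phosphopeptide as 100% phosphorylation control.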

BLK, sequence (P51451 whole entry): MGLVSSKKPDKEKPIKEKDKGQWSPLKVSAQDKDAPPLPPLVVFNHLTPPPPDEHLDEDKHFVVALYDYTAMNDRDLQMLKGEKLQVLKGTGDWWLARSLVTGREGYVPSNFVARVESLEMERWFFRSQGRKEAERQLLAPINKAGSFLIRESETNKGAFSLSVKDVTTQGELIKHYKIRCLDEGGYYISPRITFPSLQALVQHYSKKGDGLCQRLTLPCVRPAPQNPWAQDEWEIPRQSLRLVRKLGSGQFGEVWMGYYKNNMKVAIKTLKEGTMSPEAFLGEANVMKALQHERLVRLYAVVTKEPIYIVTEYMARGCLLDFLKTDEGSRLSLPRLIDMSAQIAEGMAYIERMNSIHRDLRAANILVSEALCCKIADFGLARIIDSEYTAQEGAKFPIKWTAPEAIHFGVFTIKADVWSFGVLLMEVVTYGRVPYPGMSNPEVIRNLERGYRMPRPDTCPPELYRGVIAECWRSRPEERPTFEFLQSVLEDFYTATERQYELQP
EGFR-T790M, sequence (P00533 25-1210 T790M): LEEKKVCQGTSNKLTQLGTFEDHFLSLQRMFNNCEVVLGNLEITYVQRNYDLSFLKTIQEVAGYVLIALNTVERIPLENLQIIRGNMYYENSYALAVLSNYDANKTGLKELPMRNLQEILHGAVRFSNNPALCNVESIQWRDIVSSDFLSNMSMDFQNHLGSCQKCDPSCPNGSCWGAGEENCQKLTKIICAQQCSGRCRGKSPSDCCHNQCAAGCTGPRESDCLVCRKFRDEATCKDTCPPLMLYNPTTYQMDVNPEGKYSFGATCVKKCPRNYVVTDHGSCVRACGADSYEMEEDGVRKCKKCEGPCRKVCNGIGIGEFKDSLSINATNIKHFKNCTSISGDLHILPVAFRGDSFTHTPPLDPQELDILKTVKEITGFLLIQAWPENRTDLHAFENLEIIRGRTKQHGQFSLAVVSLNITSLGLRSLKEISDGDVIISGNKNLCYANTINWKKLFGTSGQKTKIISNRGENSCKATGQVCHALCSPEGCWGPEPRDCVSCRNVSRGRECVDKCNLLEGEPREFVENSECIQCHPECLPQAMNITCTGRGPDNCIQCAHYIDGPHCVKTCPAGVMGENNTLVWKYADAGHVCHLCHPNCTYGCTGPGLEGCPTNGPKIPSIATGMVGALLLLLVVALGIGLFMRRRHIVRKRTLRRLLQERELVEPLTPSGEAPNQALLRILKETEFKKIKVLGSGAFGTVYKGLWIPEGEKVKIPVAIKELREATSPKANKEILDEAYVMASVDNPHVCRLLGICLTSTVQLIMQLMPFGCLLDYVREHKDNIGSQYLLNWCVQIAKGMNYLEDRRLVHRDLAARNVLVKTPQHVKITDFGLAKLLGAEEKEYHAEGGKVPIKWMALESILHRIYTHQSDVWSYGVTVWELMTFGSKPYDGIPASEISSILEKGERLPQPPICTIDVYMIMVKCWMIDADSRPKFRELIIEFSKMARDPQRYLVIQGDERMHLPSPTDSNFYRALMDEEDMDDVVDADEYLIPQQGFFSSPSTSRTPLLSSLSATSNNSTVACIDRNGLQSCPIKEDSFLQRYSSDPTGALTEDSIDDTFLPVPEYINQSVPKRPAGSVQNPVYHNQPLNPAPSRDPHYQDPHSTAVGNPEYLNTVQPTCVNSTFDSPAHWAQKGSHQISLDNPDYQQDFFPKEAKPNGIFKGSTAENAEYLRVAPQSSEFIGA
EGFR-L858R/T790M, sequence (P00533 25-1210 T790M/L858R): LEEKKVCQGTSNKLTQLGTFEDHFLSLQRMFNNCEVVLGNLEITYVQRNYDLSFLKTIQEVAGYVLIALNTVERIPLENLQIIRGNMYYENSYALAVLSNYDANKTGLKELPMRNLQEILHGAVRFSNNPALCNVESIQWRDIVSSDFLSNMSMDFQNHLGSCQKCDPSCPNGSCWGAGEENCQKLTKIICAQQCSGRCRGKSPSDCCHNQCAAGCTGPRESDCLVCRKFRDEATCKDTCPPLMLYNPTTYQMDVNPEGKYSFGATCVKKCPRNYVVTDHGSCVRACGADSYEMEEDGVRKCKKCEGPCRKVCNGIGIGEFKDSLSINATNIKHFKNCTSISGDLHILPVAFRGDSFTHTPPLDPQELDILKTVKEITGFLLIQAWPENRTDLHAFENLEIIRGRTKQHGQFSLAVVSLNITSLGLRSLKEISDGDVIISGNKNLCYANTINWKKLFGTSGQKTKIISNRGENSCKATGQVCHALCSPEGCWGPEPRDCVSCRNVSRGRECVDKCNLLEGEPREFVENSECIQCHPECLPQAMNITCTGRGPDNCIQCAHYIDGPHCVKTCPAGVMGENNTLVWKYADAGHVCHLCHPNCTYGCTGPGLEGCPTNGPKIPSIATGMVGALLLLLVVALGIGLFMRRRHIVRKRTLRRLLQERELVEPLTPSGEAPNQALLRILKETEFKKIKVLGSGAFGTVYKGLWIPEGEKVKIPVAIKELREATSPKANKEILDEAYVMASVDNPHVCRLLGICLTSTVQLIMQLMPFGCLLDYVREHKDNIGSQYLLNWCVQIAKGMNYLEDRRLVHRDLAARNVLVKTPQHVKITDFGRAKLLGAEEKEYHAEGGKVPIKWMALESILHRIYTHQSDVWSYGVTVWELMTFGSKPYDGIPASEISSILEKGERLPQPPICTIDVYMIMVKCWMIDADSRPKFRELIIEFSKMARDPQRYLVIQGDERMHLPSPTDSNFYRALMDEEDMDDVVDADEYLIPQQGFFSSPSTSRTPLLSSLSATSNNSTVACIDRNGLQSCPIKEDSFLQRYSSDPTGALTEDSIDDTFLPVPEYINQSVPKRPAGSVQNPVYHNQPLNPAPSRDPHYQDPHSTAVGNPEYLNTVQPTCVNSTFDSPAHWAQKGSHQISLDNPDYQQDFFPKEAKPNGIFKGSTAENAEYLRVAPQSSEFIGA
EGFR-L858R, sequence (P00533 25-1210 L858R): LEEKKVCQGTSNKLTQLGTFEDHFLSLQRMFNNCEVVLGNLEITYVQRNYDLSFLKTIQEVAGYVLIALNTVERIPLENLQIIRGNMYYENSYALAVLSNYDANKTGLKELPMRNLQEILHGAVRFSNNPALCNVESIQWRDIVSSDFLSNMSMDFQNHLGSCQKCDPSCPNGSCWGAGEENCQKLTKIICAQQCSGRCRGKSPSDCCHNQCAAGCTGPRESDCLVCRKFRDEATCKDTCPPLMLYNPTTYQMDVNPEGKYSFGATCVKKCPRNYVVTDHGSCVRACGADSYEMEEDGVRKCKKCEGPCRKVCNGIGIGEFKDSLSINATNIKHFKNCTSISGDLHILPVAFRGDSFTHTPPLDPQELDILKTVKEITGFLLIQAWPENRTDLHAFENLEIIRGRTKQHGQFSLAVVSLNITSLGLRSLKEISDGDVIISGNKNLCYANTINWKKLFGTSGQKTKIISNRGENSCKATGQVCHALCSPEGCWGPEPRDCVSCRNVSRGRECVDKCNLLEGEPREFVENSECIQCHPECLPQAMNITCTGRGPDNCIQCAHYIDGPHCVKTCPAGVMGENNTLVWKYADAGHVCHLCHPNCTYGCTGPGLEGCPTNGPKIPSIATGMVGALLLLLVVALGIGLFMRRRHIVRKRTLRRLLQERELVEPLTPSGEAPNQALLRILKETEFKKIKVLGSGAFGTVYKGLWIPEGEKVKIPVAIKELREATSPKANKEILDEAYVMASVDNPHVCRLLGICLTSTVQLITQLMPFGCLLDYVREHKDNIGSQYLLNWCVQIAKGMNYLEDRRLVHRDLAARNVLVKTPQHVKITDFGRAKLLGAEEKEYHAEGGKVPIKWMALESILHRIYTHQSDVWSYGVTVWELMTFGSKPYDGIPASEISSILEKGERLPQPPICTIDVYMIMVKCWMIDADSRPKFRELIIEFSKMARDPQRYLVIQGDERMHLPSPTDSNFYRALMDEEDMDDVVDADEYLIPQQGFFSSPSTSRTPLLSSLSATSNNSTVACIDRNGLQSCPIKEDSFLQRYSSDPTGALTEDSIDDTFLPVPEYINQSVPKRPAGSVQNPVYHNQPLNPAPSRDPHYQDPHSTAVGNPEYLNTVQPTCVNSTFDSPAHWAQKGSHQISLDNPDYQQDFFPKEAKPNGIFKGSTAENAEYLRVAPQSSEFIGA
FLT3, sequence (P36888 27-993): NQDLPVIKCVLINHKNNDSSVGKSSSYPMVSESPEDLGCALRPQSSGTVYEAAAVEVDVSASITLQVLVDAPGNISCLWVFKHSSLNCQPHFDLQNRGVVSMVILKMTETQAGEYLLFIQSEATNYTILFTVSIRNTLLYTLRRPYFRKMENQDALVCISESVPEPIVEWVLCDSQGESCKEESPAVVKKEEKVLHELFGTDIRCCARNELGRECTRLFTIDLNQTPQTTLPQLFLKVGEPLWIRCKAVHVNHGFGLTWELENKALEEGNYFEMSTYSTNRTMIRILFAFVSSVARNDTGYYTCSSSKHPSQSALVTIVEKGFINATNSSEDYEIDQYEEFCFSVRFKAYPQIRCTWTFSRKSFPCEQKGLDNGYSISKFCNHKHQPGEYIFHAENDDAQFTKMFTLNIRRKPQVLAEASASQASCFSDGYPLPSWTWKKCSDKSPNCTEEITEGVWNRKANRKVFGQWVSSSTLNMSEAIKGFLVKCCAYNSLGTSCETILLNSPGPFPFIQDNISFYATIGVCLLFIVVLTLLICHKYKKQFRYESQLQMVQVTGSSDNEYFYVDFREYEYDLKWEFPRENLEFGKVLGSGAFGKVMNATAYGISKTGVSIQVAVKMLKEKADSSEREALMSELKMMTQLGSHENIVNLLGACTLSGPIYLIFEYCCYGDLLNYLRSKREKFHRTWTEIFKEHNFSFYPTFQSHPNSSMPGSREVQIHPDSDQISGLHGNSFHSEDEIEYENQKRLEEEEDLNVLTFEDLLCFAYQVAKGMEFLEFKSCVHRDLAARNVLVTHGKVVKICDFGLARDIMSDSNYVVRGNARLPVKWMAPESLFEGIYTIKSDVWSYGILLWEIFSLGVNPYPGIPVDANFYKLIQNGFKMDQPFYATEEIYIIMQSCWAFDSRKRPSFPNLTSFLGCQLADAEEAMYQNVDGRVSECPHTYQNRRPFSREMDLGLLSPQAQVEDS
Description for EGFR-T790M: (§9) Inhibitory effects in vitro of the compounds provided in the present invention on EGFR kinase activity was tested as follows:
(§10) 10 concentration gradients, from 5.1×10^−11 mol/L to 1.0×10^−6 mol/L, were set for all of the compounds to be tested.
(§11) 10 μL of kinase reaction system comprised 2.5 μL of compound solution, 5 μL of Kinase/peptide mixture, and 2.5 μL of ATP solution. 5 μL of phosphopeptide solution was used in place of kinase/peptide mixture as 100% phosphorylation control. […] After thoroughly mixing the solution within the plate, the plate was incubated at room temperature for 1.5 hours. 5 μL of DevelopmentSolution was added into each well, and then the plate was incubated at room temperature for another 1 hour, and non-phosphorylated peptide was cleaved within this period. Finally, the reaction was quenched by adding 5 μL of Stop Reagent. The Plate was measured with EnVision Multilabel Reader (Perkin Elmer). Experimental data were calculated by using GraphPad Prism version 4.0. Each experiment was repeated more than three times.
Description for wild-type EGFR: as §9, §10, §11

`C=CC(=O)Nc1ccc(-n2c(=O)cnc3cnc(Nc4ccc(N5CCOCC5)cc4)nc32)cc1` [Compound 003, N-(4-(2-(4-morpholino-phenylamino)-7-oxo-8(7H)-pteridin-yl)phenyl)acrylamide]: the IC50 in [1] is over 10 µM; in test [2] it was over 10 µM; in the test with MCF-7, over 10 µM; in test [3] it was over 10 µM; on FLT3 it was 137 nM; at EGFR-T790M, 8700 nM. Besides, the IC50 in test [4] was 3.01 µM; in test [5], over 10 µM; on BLK, 4170 nM; on wild-type EGFR, 8010 nM; on EGFR-L858R/T790M it was 3300 nM; on EGFR-L858R it was 4080 nM.

For `CCC(=O)Nc1cccc(-n2c(=O)cnc3cnc(Nc4ccc(OC)cc4)nc32)c1` [Compound 007, N-(3-(2-(4-methoxyphenylamino)-7-oxo-8(7H)-pteridin-yl)phenyl) propionamide], the IC50 in test [1] is over 10 µM; in [2] it was over 10 µM; in the test on MCF-7, over 10 µM; in [3] it was over 10 µM; on FLT3 it was 1490 nM; at EGFR-T790M, over 10000 nM. The IC50 in [4] is over 10 µM; in test [5], over 10 µM; on BLK, over 10000 nM; at wild-type EGFR, over 10000 nM; on EGFR-L858R/T790M, over 10000 nM; at EGFR-L858R, over 10000 nM.

Take `COc1ccc(Nc2ncc3ncc(=O)n(-c4cccc(N)c4)c3n2)cc1` [Compound 005]: the IC50 is over 10 µM in [1]; over 10 µM in test [2]; over 10 µM in the test with MCF-7; over 10 µM in test [3]; 30 nM at FLT3; over 10000 nM at EGFR-T790M. The IC50 in test [4] was over 10 µM; in test [5], over 10 µM; at BLK, over 10000 nM; on wild-type EGFR it was over 10000 nM; on EGFR-L858R/T790M it was over 10000 nM; at EGFR-L858R, 87200 nM.

On to `COc1ccc(Nc2ncc3ncc(=O)n(-c4ccc(N)cc4)c3n2)cc1` [Compound 001], for which the IC50 in test [1] was over 10 µM; in [2], over 10 µM; in the test with MCF-7 it was over 10 µM; in test [3], over 10 µM; on FLT3 it was 27 nM; on EGFR-T790M, over 10000 nM. Further, the IC50 was over 10 µM in [4]; over 10 µM in test [5]; over 10000 nM at BLK; over 10000 nM on wild-type EGFR; over 10000 nM at EGFR-L858R/T790M; over 10000 nM on EGFR-L858R.

Consider `C=CC(=O)Nc1ccc(-n2c(=O)cnc3cnc(Nc4ccc(OC)cc4)nc32)cc1` [Compound 002, N-(4-(2-(4-methoxyphenylamino)-7-oxo-8(7H)-pteridin-yl)phenyl)acrylamide], for which the IC50 in test [1] was over 10 µM; in [2], 1.57 µM; with MCF-7 it was 1.51 µM; in test [3], 1.23 µM; at FLT3, 128 nM; on EGFR-T790M, 665 nM. The IC50 in test [4] turned out to be 1.29 µM; in test [5] it was 2.75 µM; at BLK, 3040 nM; at wild-type EGFR, 446 nM; on EGFR-L858R/T790M, 606 nM; on EGFR-L858R, 546 nM.

`COc1ccc(Nc2ncc3ncc(=O)n(-c4cccc(NC(=O)/C=C/CN(C)C)c4)c3n2)cc1` [Compound 010, 4-(dimethylamino)-N-(3-(2-(4-methoxyphenylamino)-7-oxo-8(7H)-pteridin-yl)phenyl)-2-buteneamide]: the IC50 was 3.43 µM in [1]; 7.17 µM in test [2]; 3.6 µM in the test on MCF-7; over 10 µM in test [3]; 4390 nM at FLT3; 2250 nM at EGFR-T790M. Moreover, the IC50 is 4.16 µM in test [4]; over 10 µM in [5]; 106 nM at BLK; 8090 nM on wild-type EGFR; 2020 nM on EGFR-L858R/T790M; 6080 nM at EGFR-L858R.

As to `C=CC(=O)Nc1ccc(-n2c(=O)c(C)nc3cnc(Nc4ccc(OC)cc4)nc32)cc1` [Compound 004, N-(4-(2-(4-methoxyphenylamino)-6-methyl-7-oxo-8(7H)-pteridin-yl)phenyl)acrylamide], the IC50 in [1] was over 10 µM; in test [2] it was over 10 µM; in the test with MCF-7, over 10 µM; in [3] it was over 10 µM; at FLT3 it was 206 nM; at EGFR-T790M, over 10000 nM. Moreover, the IC50 in test [4] is 3.33 µM; in [5], over 10 µM; at BLK, over 10000 nM; at wild-type EGFR it was 3180 nM; on EGFR-L858R/T790M, over 10000 nM; at EGFR-L858R, 4880 nM.

On to `CCC(=O)Nc1ccc(-n2c(=O)cnc3cnc(Nc4ccc(OC)cc4)nc32)cc1` [Compound 008, N-(4-(2-(4-methoxyphenylamino)-7-oxo-8(7H)-pteridin-yl)phenyl) propionamide], for which the IC50 in test [1] is over 10 µM; in test [2] it was over 10 µM; with MCF-7, over 10 µM; in [3], 6.12 µM; on FLT3, 115 nM; at EGFR-T790M, over 10000 nM. In addition, the IC50 is over 10 µM in test [4]; over 10 µM in test [5]; over 10000 nM on BLK; over 10000 nM at wild-type EGFR; over 10000 nM on EGFR-L858R/T790M; over 10000 nM on EGFR-L858R.
